In ChEMBL document CHEMBL5523764, “Discovery of NO Donor-Aurovertin Hybrids as Dual Ferroptosis and Apoptosis Inducers for Treating Triple Negative Breast Cancer” (J Med Chem, 2024):
The source made the active and inactive calls. The rule behind the calls is not given here.

Key:
[1] = system: MDA-MB-231; assay: Induction of apoptosis in human MDA-MB-231 cells assessed as upregulation of cleaved caspase-3 expression at 0.25 to 1 uM by Western blot analysis; assay type: functional, cell-based; conditions: dose 0.25-1 µM
[2] = system: MDA-MB-231; assay: Upregulation of Bax expression in human MDA-MB-231 cells at 0.25 to 1 uM by Western blot analysis; assay type: functional, cell-based; conditions: dose 0.25-1 µM
[3] = Acute toxicity in female ICR mouse assessed as liver pathological abnormalities at 50 mg/kg, ip measured after 2 days; assay type: organism-based; conditions: in vivo, 48 h, time 2 day
[4] = system: MDA-MB-231; assay: Induction of ferroptosis in human MDA-MB-231 cells assessed as decrease in GPX4 expression by Western blot analysis; assay type: functional, cell-based; conditions: dose 0.25-1 µM
[5] = system: 4T1; assay: Downregulation of phosphorylated AKT protein level at Thr308 residue in mouse 4T1 cells at 0.02 to 2.5 uM incubated for 24 hrs by Western blot analysis; assay type: functional, cell-based; conditions: dose 0.02-2.5 µM
[6] = Acute toxicity in ip female ICR mouse assessed as lethal dose measured after 2 days; assay type: organism-based; conditions: in vivo, time 2 day
[7] = system: MDA-MB-231; assay: Induction of NO release in human MDA-MB-231 cells assessed NO concentration by Griess reagent based assay; assay type: functional
[8] = system: MDA-MB-231; assay: Induction of apoptosis in human MDA-MB-231 cells assessed as late apoptotic cells at 0.5 uM by Annexin V-FITC staining based flow cytometric analysis (reference value: 0.02 %); assay type: functional
[9] = system: MDA-MB-468; assay: Antiproliferative activity against human MDA-MB-468 cells assessed as reduction in cell viability incubated for 72 hrs by MTT assay; assay type: functional, cell-based; conditions: MDA-MB-468, 72 h
[10] = system: MDA-MB-231; assay: Antiproliferative activity against human MDA-MB-231 cells assessed as reduction in cell viability incubated for 72 hrs by MTT assay; assay type: functional, cell-based; conditions: MDA-MB-231, 72 h
[11] = system: MDA-MB-231; assay: Induction of apoptosis in human MDA-MB-231 cells assessed as viable cells at 1 uM by Annexin V-FITC staining based flow cytometric analysis (reference value: 91.03%); assay type: functional; conditions: read-out: Activity
[12] = system: MDA-MB-231; assay: Induction of apoptosis in human MDA-MB-231 cells assessed as upregulation of caspase-9 expression at 0.25 to 1 uM by Western blot analysis; assay type: functional, cell-based; conditions: dose 0.25-1 µM
[13] = Acute toxicity in female ICR mouse assessed as kidney pathological abnormalities at 50 mg/kg, ip measured after 2 days; assay type: organism-based; conditions: in vivo, 48 h, time 2 day
[14] = system: MDA-MB-231; assay: Induction of apoptosis in human MDA-MB-231 cells assessed as viable cells at 0.5 uM by Annexin V-FITC staining based flow cytometric analysis (reference value: 91.03%); assay type: functional; conditions: read-out: Activity
[15] = system: 4T1; assay: Antiinvasive activity against mouse 4T1 cells assessed as inhibition of cell invasion at 0.5 uM measured after 24 hrs by crystal violet staining based transwell invasion assay relative to control; assay type: functional
[16] = system: MDA-MB-231; assay: Induction of lipid ROS accumulation in human MDA-MB-231 cells incubated for 24 hrs by BODIPY-C11 probe based flow cytometric analysis; assay type: functional, cell-based; conditions: dose 0.25-1 µM
[17] = system: 4T1; assay: Downregulation of phosphorylated mTOR protein level at Ser2448 residue in mouse 4T1 cells at 0.02 to 2.5 uM incubated for 24 hrs by Western blot analysis; assay type: functional, cell-based; conditions: dose 0.02-2.5 µM
[18] = Acute toxicity in female ICR mouse assessed as effect on body weight at <40 mg/kg, ip measured within 24 hrs; assay type: organism-based; conditions: in vivo
[19] = system: MDA-MB-231; assay: Antitumor activity against human MDA-MB-231 cells xenografted in nude mouse assessed as reduction in tumor weight at 20 mg/kg, ip administered for 30 days relative to control; assay type: functional; design: scale not given: the % may be the effect or the level left; conditions: time 30 day
[20] = system: MDA-MB-231; assay: Induction of ferroptosis in human MDA-MB-231 cells assessed as decrease in FTH1 expression in presence of Fer-1 by Western blot analysis; assay type: functional, cell-based
[21] = system: T47D; assay: Antiproliferative activity against human T47D cells assessed as reduction in cell viability incubated for 72 hrs by MTT assay; assay type: functional, cell-based
[22] = Drug metabolism in nude mouse xenografted with human MDA-MB-231 cells assessed as aurovertin-B release at 10 to 20 mg/kg, ip administered for 30 days by LC-MS/MS analysis; assay type: ADME, organism-based; conditions: in vivo, 720 h, dose 10-20 mg/kg, time 30 day
[23] = system: MDA-MB-231; assay: Induction of ferroptosis in human MDA-MB-231 cells assessed as decrease in GPX4 expression in presence of Fer-1 by Western blot analysis; assay type: functional, cell-based
[24] = system: MDA-MB-231; assay: Antitumor activity against human MDA-MB-231 cells xenografted in nude mouse assessed as reduction in tumor size at 10 to 20 mg/kg, ip administered for 30 days; assay type: functional, organism-based; conditions: dose 10-20 mg/kg, time 30.0 day
[25] = system: MDA-MB-231; assay: Induction of apoptosis in human MDA-MB-231 cells assessed as early apoptotic cells at 0.5 uM by Annexin V-FITC staining based flow cytometric analysis (reference value: 0.17 %); assay type: functional
[26] = system: MDA-MB-231; assay: Inhibition of Bcl-xl expression in human MDA-MB-231 cells at 0.25 to 1 uM by Western blot analysis; assay type: functional, cell-based; conditions: dose 0.25-1 µM
[27] = system: MDA-MB-231; assay: Induction of apoptosis in human MDA-MB-231 cells assessed as upregulation of PARP-1 expression at 0.25 to 1 uM by Western blot analysis; assay type: functional, cell-based; conditions: dose 0.25-1 µM
[28] = system: MDA-MB-231; assay: Induction of apoptosis in human MDA-MB-231 cells assessed as early apoptotic cells at 0.25 uM by Annexin V-FITC staining based flow cytometric analysis (reference value: 0.17 %); assay type: functional
[29] = system: MDA-MB-231; assay: Inhibition of Bcl2 expression in human MDA-MB-231 cells at 0.25 to 1 uM by Western blot analysis; assay type: functional, cell-based; conditions: dose 0.25-1 µM
[30] = system: MDA-MB-231; assay: Induction of apoptosis in human MDA-MB-231 cells assessed as viable cells at 0.25 uM by Annexin V-FITC staining based flow cytometric analysis (reference value: 91.03%); assay type: functional; conditions: read-out: Activity
[31] = system: MDA-MB-231; assay: Antitumor activity against human MDA-MB-231 cells xenografted in nude mouse assessed as reduction in tumor weight at 10 mg/kg, ip administered for 30 days relative to control; assay type: functional; design: scale not given: the % may be the effect or the level left; conditions: time 30 day

Compound: CC[C@H]1O[C@@]2(C)[C@H](OC(C)=O)[C@@]1(C)O[C@@H](/C=C/C=C/C=C/c1oc(=O)cc(OC)c1C)[C@@H]2OC(=O)CCC(=O)OC/C=C/COc1no[n+]([O-])c1S(=O)(=O)c1ccccc1
- Activity [1]: Active
- Activity [2]: Active
- Activity [3]: Non-Toxic
- Activity [4]: Dose-Dependent Effect
- Activity [5]: Active
- LD50 at 48 h [6]: 103 mg/kg
- Activity [7]: 4.87 µM
- Activity [8]: 8.01%
- IC50 [9]: 450 nM
- IC50 [10]: 630 nM
- viability at 1 µM [11]: 47%
- Activity [12]: Active
- Activity [13]: Non-Toxic
- viability at 0.5 µM [14]: 75.3%
- inhibition at 0.5 µM [15]: 62.8%
- Activity [16]: Dose-Dependent Effect
- Activity [17]: Active
- Activity [18]: Non-Toxic
- Activity [19]: 91%
- Activity [20]: inactive
- IC50 [21]: > 50000 nM
- Drug metabolism [22]: Metabolite_Detected
- Activity [23]: inactive
- Activity [24]: Active
- Activity [25]: 16.23%
- inhibition [26]: Active
- Activity [27]: Active
- Activity [28]: 12.97%
- inhibition [29]: Active
- viability at 0.25 µM [30]: 80.8%
- Activity [31]: 86%
